The values that follow come from PubChem BioAssay (NCI).

The structures appear in SMILES notation.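 These data come from cells grown in 96-well plates and exposed to compound for 48 hours at five concentrations. Definition used: TGI = concentration required for complete inhibition of growth.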 A value given as a limit tells only on which side of the number the result lay.

Test systems include IGROV1 ovarian; 786-0 renal; MCF7 breast; UACC-62 melanoma; SK-MEL-28 melanoma; ACHN renal; UACC-257 melanoma; MALME-3M melanoma; OVCAR-3 ovarian; OVCAR-5 ovarian; HL-60(TB) leukemia; MOLT-4 leukemia; SNB-19 CNS; SK-MEL-2 melanoma; U251 CNS; A498 renal; NCI-H226 lung; K-562 leukemia; MDA-MB-231 breast; CCRF-CEM leukemia.
Common to all, as to experiment: growth of human tumour cells (NCI), 48 h

Turning to `O=C(Cn1c2c(c3ccccc31)CCCC2)N1CCCCC1`, the TGI in the assay with IGROV1 ovarian, in the assay on 786-0 renal, in the assay on MCF7 breast, in the assay with UACC-62 melanoma, in the assay on SK-MEL-28 melanoma and in the assay with ACHN renal was above 100 µM throughout. The TGI in the assay with UACC-257 melanoma, in the assay on MALME-3M melanoma, in the assay on OVCAR-3 ovarian, in the assay with OVCAR-5 ovarian, in the assay with HL-60(TB) leukemia and in the assay on MOLT-4 leukemia was above 100 µM throughout. The TGI in the assay on SNB-19 CNS and in the assay on SK-MEL-2 melanoma was above 100 µM each time.
For the compound `CN(C(=S)Cc1ccc(Cl)c(Cl)c1)C1CCCC[C@@H]1N1CCCC1` (stereo not given in full), the TGI is above 100 µM in the assay with U251 CNS; 55 µM with 786-0 renal; 34.1 µM with UACC-62 melanoma; 31.6 µM in the assay on SK-MEL-28 melanoma; above 100 µM in the assay on ACHN renal; above 100 µM with OVCAR-3 ovarian. Further, the TGI is above 100 µM in the assay with OVCAR-5 ovarian; above 100 µM with HL-60(TB) leukemia; 60.6 µM in the assay with A498 renal; above 100 µM in the assay on NCI-H226 lung; above 100 µM in the assay with MOLT-4 leukemia; above 100 µM in the assay with SNB-19 CNS. Also, the TGI in the assay on SK-MEL-2 melanoma, in the assay on K-562 leukemia and with MDA-MB-231 breast was above 100 µM in each case.
Take `Cc1ccc(C2[C@H]3C(=O)N(c4ccc(Cc5ccc(N6C(=O)[C@@H]7ON(c8ccccc8)C(c8ccc(C)cc8)[C@@H]7C6=O)cc5)cc4)C(=O)[C@H]3ON2c2ccccc2)cc1` (stereo not given in full): the TGI in the assay on U251 CNS, in the assay on IGROV1 ovarian, with 786-0 renal, in the assay with UACC-62 melanoma, in the assay on SK-MEL-28 melanoma and with ACHN renal was above 100 µM throughout. Moreover, the TGI in the assay with UACC-257 melanoma, with MALME-3M melanoma, with OVCAR-3 ovarian, with OVCAR-5 ovarian, in the assay with HL-60(TB) leukemia and in the assay with A498 renal was above 100 µM throughout. Moreover, the TGI in the assay with NCI-H226 lung, in the assay with MOLT-4 leukemia, in the assay on CCRF-CEM leukemia, in the assay with SK-MEL-2 melanoma and in the assay on K-562 leukemia was above 100 µM throughout.
On to `N#CC(C(=N/O)/C(=N\O)C(C#N)c1ccccc1)c1ccccc1` (stereo not given), for which the TGI with U251 CNS, in the assay with IGROV1 ovarian, with 786-0 renal, in the assay on UACC-62 melanoma, in the assay on SK-MEL-28 melanoma and in the assay on ACHN renal was above 100 µM in each case. Moreover, the TGI in the assay on UACC-257 melanoma, with MALME-3M melanoma, in the assay with OVCAR-3 ovarian, in the assay on OVCAR-5 ovarian, in the assay on HL-60(TB) leukemia and in the assay on A498 renal was above 100 µM throughout. Moreover, the TGI with NCI-H226 lung, in the assay on MOLT-4 leukemia, in the assay on CCRF-CEM leukemia, in the assay on SNB-19 CNS, with SK-MEL-2 melanoma and with K-562 leukemia was above 100 µM throughout.
On to `C=C1C2CC3CCC2C(OC(=O)c2ccccc2C(=O)O)C13` (stereo not given), for which the TGI with U251 CNS, in the assay with IGROV1 ovarian, in the assay on 786-0 renal, with UACC-62 melanoma, with SK-MEL-28 melanoma and with ACHN renal was above 100 µM in each case. The TGI in the assay with UACC-257 melanoma, with MALME-3M melanoma, with OVCAR-3 ovarian, in the assay on OVCAR-5 ovarian, with HL-60(TB) leukemia and with A498 renal was above 100 µM each time. The TGI in the assay with NCI-H226 lung, in the assay on MOLT-4 leukemia, in the assay with CCRF-CEM leukemia, in the assay with SNB-19 CNS, in the assay on SK-MEL-2 melanoma and in the assay on K-562 leukemia was above 100 µM throughout. The TGI in the assay on MDA-MB-231 breast was above 100 µM.
For `Cc1ccc(C)c(NC(=O)C(=O)C2C(=O)N(c3ccccc3)N=C2N)c1` (stereo not given), the TGI with U251 CNS, in the assay on IGROV1 ovarian, with 786-0 renal, in the assay on UACC-62 melanoma, with SK-MEL-28 melanoma and in the assay with ACHN renal was above 100 µM throughout. Besides, the TGI in the assay with UACC-257 melanoma, in the assay on MALME-3M melanoma, with OVCAR-3 ovarian, with OVCAR-5 ovarian, in the assay with HL-60(TB) leukemia and with A498 renal was above 100 µM throughout. Further, the TGI with NCI-H226 lung, in the assay with MOLT-4 leukemia, in the assay on CCRF-CEM leukemia, in the assay on SNB-19 CNS, in the assay on SK-MEL-2 melanoma and in the assay with K-562 leukemia was above 100 µM in each case.
In the case of `CCCCCCCCCCCCCCCCCCOCC(C[N+]1(C)CCC(O)CC1)OCC` (stereo not given), the TGI in the assay on IGROV1 ovarian came out at 21 µM; with 786-0 renal, 19.4 µM; with UACC-62 melanoma, 19.7 µM; in the assay with SK-MEL-28 melanoma, 33.5 µM; in the assay on UACC-257 melanoma, 28 µM; in the assay on MALME-3M melanoma, 28.8 µM. For the same compound, the TGI with OVCAR-3 ovarian turned out to be 15.4 µM; with HL-60(TB) leukemia, 8.42 µM; with A498 renal, 54.9 µM; in the assay on NCI-H226 lung it was 21.4 µM; with MOLT-4 leukemia, 10.6 µM; in the assay with CCRF-CEM leukemia, 5.55 µM. The TGI turned out to be 28.3 µM with SNB-19 CNS, 20.9 µM in the assay on SK-MEL-2 melanoma and 19.1 µM in the assay on K-562 leukemia.
Turning to `CCCCCCCCCC(=O)NC(CCC(=O)N(CCNC(=O)c1nc(-c2ccccc2)oc1-c1ccccc1)Cc1ccccc1)C(=O)O` (stereo not given), the TGI with U251 CNS stood at 35.8 µM; in the assay on IGROV1 ovarian, 39.8 µM; in the assay on 786-0 renal, 32 µM; in the assay with SK-MEL-28 melanoma, 37.9 µM; with ACHN renal it was 38 µM; in the assay on UACC-257 melanoma, 54.7 µM. The TGI was 34.8 µM with MALME-3M melanoma; 30.1 µM in the assay on OVCAR-3 ovarian; 31.7 µM in the assay on OVCAR-5 ovarian; 39.7 µM with A498 renal; 55.5 µM in the assay with NCI-H226 lung; above 100 µM with MOLT-4 leukemia. The TGI in the assay with SNB-19 CNS was 31.8 µM; with MDA-MB-231 breast it was 40.6 µM.
